System: HCT116 colorectal cancer cells
Assay: Cisplatin sensitization assay (96 h MTS cell viability);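 further: compound concentration needed to lower the IC50 of Cisplatin alone by a set fold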
Format: cell-based
Details: Cisplatin sensitization value
Method: Compounds can be screened for their ability to sensitize HCT116 colorectal cancer cells to Cisplatin using a 96 h cell viability (MTS) assay. […] Compounds and Cisplatin are then both added simultaneously to the cell media in 2-fold serial dilutions from a top final concentration of 10 μM as a full matrix of concentrations in a final cell volume of 200 μl, and the cells are then incubated at 37° C. in 5% CO2. After 96 h, 40 μl of MTS reagent (Promega G358a) is added to each well and the cells are incubated for 1 h at 37° C. in 5% CO2.
Compounds with a Cisplatin sensitization value of <0.02 μM are marked with “+++.” Compounds with a Cisplatin sensitization value >0.02 μM but <0.2 μM are marked with “++.” Compounds with a Cisplatin sensitization value >0.2 μM but <5 μM are marked with “+.”

Row | Compound | Cisplatin Sensitization Assay
1 | CN1CCC(C(=O)N2CC=C(c3c(F)cncc3NC(=O)c3c(N)nn4cc(F)cnc34)CC2)CC1 [I-C-38, 2-amino-6-fluoro-N-(5-fluoro-1′-(1-methylpiperidine-4-carbonyl)-1′,2′,3′,6′-tetrahydro-[4,4′-bipyridin]-3-yl)pyrazolo[1,5-a]pyrimidine-3-carboxamide] | ++ (Compounds with a Cisplatin sensitization value >0.02 μM but <0.2 μM are marked with “++.”)
2 | Cc1nc(C(=O)N2CCN(C)CC2)ccc1-c1ccncc1NC(=O)c1c(N)nn2cc(F)cnc12 [I-C-39, 2-amino-6-fluoro-N-(2-methyl-6-(4-methylpiperazine-1-carbonyl)-[3,4′-bipyridin]-3′-yl)pyrazolo[1,5-a]pyrimidine-3-carboxamide] | +++ (Compounds with a Cisplatin sensitization value of <0.02 μM are marked with “+++.”)
3 | Cc1nc(N2CCN(C)CC2)ccc1-c1ccncc1NC(=O)c1c(N)nn2cc(F)cnc12 [I-C-40, 2-amino-6-fluoro-N-(2-methyl-6-(4-methylpiperazin-1-yl)-[3,4′-bipyridin]-3′-yl)pyrazolo[1,5-a]pyrimidine-3-carboxamide] | +++ (Compounds with a Cisplatin sensitization value of <0.02 μM are marked with “+++.”)
4 | Cc1nc(O[C@@H]2CCN(C)C2)ccc1-c1ccncc1NC(=O)c1c(N)nn2cc(F)cnc12 [I-C-41, (R)-2-amino-6-fluoro-N-(2-methyl-6-((1-methylpyrrolidin-3-yl)oxy)-[3,4′-bipyridin]-3′-yl)pyrazolo[1,5-a]pyrimidine-3-carboxamide] | +++ (Compounds with a Cisplatin sensitization value of <0.02 μM are marked with “+++.”)
5 | Nc1nn2cc(F)cnc2c1C(=O)Nc1cnccc1C1CC1 [I-C-42, 2-amino-N-(4-cyclopropylpyridin-3-yl)-6-fluoropyrazolo[1,5-a]pyrimidine-3-carboxamide] | ++ (Compounds with a Cisplatin sensitization value >0.02 μM but <0.2 μM are marked with “++.”)
6 | CN1CCN(C(=O)c2ccc(-c3c(F)cncc3NC(=O)c3c(N)nn4cc(F)cnc34)cc2)CC1 [I-C-43, 2-amino-6-fluoro-N-(5-fluoro-4-(4-(4-methylpiperazine-1-carbonyl)phenyl)pyridin-3-yl)pyrazolo[1,5-a]pyrimidine-3-carboxamide] | +++ (Compounds with a Cisplatin sensitization value of <0.02 μM are marked with “+++.”)
7 | Nc1nn2cc(F)cnc2c1C(=O)Nc1cnccc1-c1ccc(C(=O)N2CCNCC2)cc1 [I-C-44, 2-amino-6-fluoro-N-(4-(4-(piperazine-1-carbonyl)phenyl)pyridin-3-yl)pyrazolo[1,5-a]pyrimidine-3-carboxamide] | +++ (Compounds with a Cisplatin sensitization value of <0.02 μM are marked with “+++.”)
8 | Cc1cc(C(=O)N2CCN(C)CC2)ccc1-c1ccncc1NC(=O)c1c(N)nn2cc(F)cnc12 [I-C-45, 2-amino-6-fluoro-N-(4-(2-methyl-4-(4-methylpiperazine-1-carbonyl)phenyl)pyridin-3-yl)pyrazolo[1,5-a]pyrimidine-3-carboxamide] | +++ (Compounds with a Cisplatin sensitization value of <0.02 μM are marked with “+++.”)
9 | CN1CCN(C(=O)c2cnc(-c3ccncc3NC(=O)c3c(N)nn4cc(F)cnc34)c(Cl)c2)CC1 [I-C-46, 2-amino-N-(3-chloro-5-(4-methylpiperazine-1-carbonyl)-[2,4′-bipyridin]-3′-yl)-6-fluoropyrazolo[1,5-a]pyrimidine-3-carboxamide] | + (Compounds with a Cisplatin sensitization value >0.2 μM but <5 μM are marked with “+.”)
10 | Nc1nn2cc(F)cnc2c1C(=O)Nc1cnccc1C1CCN(S(=O)(=O)C2CC2)CC1 [I-C-47, 2-amino-N-(4-(1-(cyclopropylsulfonyl)piperidin-4-yl)pyridin-3-yl)-6-fluoropyrazolo[1,5-a]pyrimidine-3-carboxamide] | +++ (Compounds with a Cisplatin sensitization value of <0.02 μM are marked with “+++.”)

Source: patent US11117900B2 (Vertex Pharmaceuticals Incorporated, priority 2012, dated 2021)
